Measurements taken from patent publication US10795976B2, “Program randomization for cyber-attack resilient control in programmable logic controllers” (Siemens Aktiengesellschaft, priority 2016, dated 2020).
Where a name gives a salt, the structure may show the parent alone. Read-outs that look alike come from different tables or passages of the source.

Experiments:
[1] = tested on: C57BL/6JOlaHsd mice; format: in vivo
[2] = tested on: CB2 receptor knockout mice; format: in vivo
[3] = tested on: C57BL/6JOlaHsd mice; test: Ear scratch response (ESR) / grooming, urge-like behavior; format: in vivo
Protocol: 1. CB2 receptor selective ligands or CB2/SERM ligands were injected intraperitoneally or orally at doses of 0.001 to 100 mg/kg one to two hours before the injection of DOI. In order to test the effect of DOI on head twitch responses, ear scratch and grooming responses, DOI was intraperitoneally injected at a dose of 1 mg/kg.
ESR behavior is a measure for urge-like behavior and often preceded HTRs. The ESR is a rapid scratching movement of the head, neck, ears, or other body surfaces by either hindlimbs. The number of ESRs was manually counted. Every ESR was also counted as a grooming. In some experiments, each ESR was considered as a separate episode if the animal moved. In some experiments, each ESR was considered as a separate episode for every ESR.
Grooming behavior is a measure for anxiety. Grooming behavior in mice is characterized by licking its fur, groom with the forepaws, or scratch with any limb. Often the mouse will mix all of these grooming behaviors. The number of grooms was manually counted. In some experiments, each grooming behavior was considered as a separate episode if the animal moved its hindlimbs. In some experiments, each grooming behavior was considered as a separate episode for every grooming behavior.

[4] = tested on: mice; conditions: 5 mg/kg during postnatal days 5-13; measured at the age of 12 weeks; cited from earlier work
[5] = tested on: C57BL/6JOlaHsd mice; test: Marble burying test (MBT), compulsive behavior; format: in vivo; conditions: one hour after a single injection, age 6 weeks
Protocol: Mice were habituated to the test room for 1 h. A mouse was injected with DOI as above and then placed in the experimental cage (white plastic 36×24.5×14.5 cm) filled with 5 cm sawdust for 5 min, in the absence of marbles. The mouse was taken out and twenty black glass were arranged 4 by 5 with 7 cm apart and 1 cm apart from the wells of the cage. Each mouse was tested for its marble burying activity for 30 min. Activity was videotaped with EthoVision and buried marbles were counted manually at the end of the experiment (after 30 min). A marble considered as buried when it was sawdust-covered by two third of its volume.
Marbles that were moved were also counted.
With a view to study the effect of the JTE-907 and M1 compositions on repetitive behavior, C57BL/6JOlaHsd mice were intraperitoneally injected at age 6 weeks with a single dose of JTE-907 at 0.2-50 mg/kg, M1 at 0.2-50 mg/kg or equivalent vehicle. The number of buried marbles in the burying marble test by each mouse was recorded.

[6] = tested on: Sabra mice; test: Ultrasonic vocals after postnatal SR141716A (vocal tic-like behavior); format: in vivo
[7] = tested on: osteoclastogenesis; conditions: Schuehly et al. 2011; cited from earlier work
[8] = target: GPR55 (Homo sapiens, UniProt Q9Y2T6); conditions: Schuehly et al. 2011; cited from earlier work
[9] = target: T1, cyclooxygenase 2 (COX-2) (Homo sapiens, UniProt P35354); conditions: Schuehly et al. 2011; cited from earlier work
T1 sequence (P35354 18-604): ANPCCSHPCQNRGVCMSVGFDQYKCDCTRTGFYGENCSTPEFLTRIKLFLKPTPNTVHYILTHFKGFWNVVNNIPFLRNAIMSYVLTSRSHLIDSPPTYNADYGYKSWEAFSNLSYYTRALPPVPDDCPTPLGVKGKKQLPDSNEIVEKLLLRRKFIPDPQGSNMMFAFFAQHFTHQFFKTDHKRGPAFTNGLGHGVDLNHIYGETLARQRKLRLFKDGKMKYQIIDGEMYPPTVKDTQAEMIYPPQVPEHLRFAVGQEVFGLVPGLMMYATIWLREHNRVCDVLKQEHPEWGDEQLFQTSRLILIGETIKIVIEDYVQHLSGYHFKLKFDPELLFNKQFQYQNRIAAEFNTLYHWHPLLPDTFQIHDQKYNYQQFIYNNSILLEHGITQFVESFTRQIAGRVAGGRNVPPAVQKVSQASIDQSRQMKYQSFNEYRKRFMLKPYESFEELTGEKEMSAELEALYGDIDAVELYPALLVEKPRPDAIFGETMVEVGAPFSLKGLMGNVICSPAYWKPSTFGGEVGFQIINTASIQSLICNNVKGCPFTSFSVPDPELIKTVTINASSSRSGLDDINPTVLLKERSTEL

[10] = tested on: Tourette syndrome (TS) patients; conditions: patient reports; cited from earlier work
[11] = model inducer, 1 mg/kg i.p., age three weeks up to 21 weeks
[12] = 0.2 mg/kg i.p. single dose, one hour before DOI 1 mg/kg i.p., age 3 weeks
[13] = 5 mg/kg i.p. single dose, one hour before DOI 1 mg/kg i.p., age 3 weeks
[14] = 1-20 mg/kg i.p., no DOI, age 6 weeks
[15] = 10 mg/kg i.p. single dose, one hour before DOI 1 mg/kg i.p., age 3 weeks

GPR55, sequence (Q9Y2T6 whole entry, species assumed): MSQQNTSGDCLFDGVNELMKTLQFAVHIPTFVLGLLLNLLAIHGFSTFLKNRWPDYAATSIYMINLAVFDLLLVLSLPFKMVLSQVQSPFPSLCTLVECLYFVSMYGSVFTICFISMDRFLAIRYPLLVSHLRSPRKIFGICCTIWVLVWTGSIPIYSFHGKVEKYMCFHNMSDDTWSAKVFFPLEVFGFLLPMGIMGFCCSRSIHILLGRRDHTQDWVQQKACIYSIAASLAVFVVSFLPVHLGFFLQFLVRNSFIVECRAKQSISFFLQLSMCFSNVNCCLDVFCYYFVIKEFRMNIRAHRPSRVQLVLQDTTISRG

**Q.** Which results are given for `COc1cc(CC(C)N)c(OC)cc1I.Cl` (single isomer, unassigned; (-)) [DOI, (−)-1-(2,5-dimethoxy-4-iodophenyl)-2-aminopropane hydrochloride]?
**A.** head twitch response [1, 11]: increased; HTR frequency in CB2 receptor knockout mice ([2]; model inducer, 1 mg/kg i.p., 6 weeks old): increased; ear scratch response and grooming behavior [3, 11]: increased

**Q.** Which “DOI-induced repetitive head twitches” value ([1]; dose not stated) does the source give for `C=C1CC/C=C(\C)CC[C@@H]2[C@@H]1CC2(C)C` [BCP, beta-caryophyllene] here?
**A.** able to reduce

**Q.** For `CCCCCCC(C)(C)c1cc(OC)c([C@@H]2C=C(CO)[C@@H]3C[C@H]2C3(C)C)c(OC)c1` [HU-308, [(1R,2R,5R)-2-[2,6-dimethoxy-4-(2-methyloctan-2-yl)phenyl]-7,7-dimethyl-4-bicyclo[3.1.1]hept-3-enyl] methanol], which “DOI-induced HTR frequency” value [1, 12] is on record?
**A.** reduced

**Q.** What about the “repetitive behavior (HTR) with the drug alone” value ([1]; 0.2 mg/kg i.p., saline instead of DOI, age 3 weeks) of the same molecule?
**A.** significantly increased

**Q.** What about the “DOI-induced HTR frequency” value [1, 13] of the same molecule?
**A.** reduced

**Q.** What about the “DOI-induced HTR frequency in CB2 receptor knockout mice” value ([2]; 5 mg/kg i.p., one hour before DOI 1 mg/kg i.p., male, age 6-21 weeks) of the same molecule?
**A.** significantly reduces

**Q.** And the “motor tics/head twitches in the open field test” value [4]?
**A.** induce abnormal motor tics/head twitches

**Q.** Which results are given for `CCCCCOc1c(OC)ccc2cc(C(=O)NCc3ccc4c(c3)OCO4)c(=O)[nH]c12` [JTE-907, N-(benzo[1,3]dioxol-5-ylmethyl)-7-methoxy-2-oxo-8-pentyloxy-1,2-dihydroquinoline-3-carboxamide]?
**A.** DOI-induced HTR frequency [1, 12]: reduced; DOI-induced HTR frequency [1, 13]: reduced; number of buried marbles ([5]; 5 mg/kg i.p.): reduced

**Q.** With `C=CCc1ccc(O)c(-c2ccc(OC)c(CC=C)c2)c1` [MH, 2-(4-Methoxy-3-prop-2-enylphenyl)-4-prop-2-enylphenol] as the molecule, how does the “DOI-induced HTRs” value ([1]; 1 mg/kg i.p. single dose, one hour before DOI 1 mg/kg i.p., age 3 weeks) read?
**A.** reduced

**Q.** And the “DOI-induced HTRs” value ([1]; 1 mg/kg i.p. single dose, one hour before DOI 1 mg/kg i.p., age 6 weeks)?
**A.** reduced

**Q.** And the “DOI-induced HTR frequency” value ([1]; 1 mg/kg oral (gavage) in self-emulsifying oral formulation, two hours before DOI 1 mg/kg i.p., age 3 weeks)?
**A.** significantly reduced

**Q.** And the “DOI-induced HTR frequency” value [1, 13]?
**A.** reduced

**Q.** And the “DOI-induced HTRs” value ([1]; 5 mg/kg i.p. single dose, one hour before DOI 1 mg/kg i.p., age 6 weeks)?
**A.** reduced

**Q.** And the “DOI-induced HTR frequency” value ([1]; 5 mg/kg oral (gavage) in self-emulsifying oral formulation, two hours before DOI 1 mg/kg i.p., age 3 weeks)?
**A.** significantly reduced

**Q.** And the “HTR induced by the drug alone” value [1, 14]?
**A.** did not induce HTR at any dose

**Q.** What about the “effect to reverse DOI-induced HTR, comparison of ages” value ([1]; i.p., 20 min from DOI injection, age 3 weeks vs 6 weeks) of the same molecule?
**A.** higher at age 3 weeks than 6 weeks

**Q.** And the “effect on DOI-induced HTR frequency, 1 mg/kg compared with 5 mg/kg” value ([1]; oral formulation, age 3 weeks)?
**A.** greater

**Q.** What about the “urge-like response induced by the drug alone” value [3, 14] of the same molecule?
**A.** did not induce urge-like response at any dose

**Q.** What about the “frequency of DOI-induced ESR behavior (urge-like behavior)” value ([3]; i.p., one hour before DOI 1 mg/kg i.p., dose not given) of the same molecule?
**A.** reduced

**Q.** What about the “vocal tic-like behavior (number of ultrasonic vocal events)” value ([6]; SR141716A 5 mg/kg s.c. postnatal day 1-3, drug 5 mg/kg s.c. at age 13 days, one hour before recording) of the same molecule?
**A.** significantly reduces

**Q.** And the “number of buried marbles” value ([5]; 10 mg/kg i.p.)?
**A.** reduced

**Q.** And the osteoclastogenesis [7]?
**A.** potently inhibits

**Q.** And the GPR55 activity [8]?
**A.** not

**Q.** And the COX-2 enzymatic activity [9]?
**A.** inhibits

**Q.** Which “vocalization of mice pups vs control litter mates” value ([6]; administered at the age of one to two days) does the source give for `Cc1c(C(=O)NN2CCCCC2)nn(-c2ccc(Cl)cc2Cl)c1-c1ccc(Cl)cc1` [SR141716A] here?
**A.** higher level of vocalization and/or higher number of vocals

**Q.** For `CCN(CC)CCOc1ccc(C(=C(Cl)c2ccccc2)c2ccccc2)cc1` [clomiphene citrate], which “DOI-induced HTR frequency” value [1, 15] is on record?
**A.** did not significantly reverse

**Q.** For `O=C(c1ccc(OCCN2CCCCC2)cc1)c1c(-c2ccc(O)cc2)sc2cc(O)ccc12` [raloxifene], which “DOI-induced HTR frequency” value [1, 15] is on record?
**A.** reduced

**Q.** For `CCCCCc1cc(O)c2c(c1)OC(C)(C)[C@@H]1CCC(C)=C[C@@H]21` [Δ^9-tetrahydrocannabinol], which tic frequency [10] is on record?
**A.** ameliorate
